Source: patent publication US11589588B2, “Methods of identification and use of nematicide compounds” (UNIVERSITY OF NEW HAMPSHIRE, priority 2013, dated 2023)

Legend:
Format in all cases: in vivo
C. elegans [1] = experiment: Egg hatching / fecundity of C. elegans continuously exposed to PDE inhibitors; conditions: continuous exposure at concentrations maximally reducing motility; juveniles counted on Day 5; FIG. 6; experiment performed once
Procedure: The number of newly hatched juveniles on Day 5 was counted and normalized to the reproductive success of the control condition (no inhibitor). This experiment was performed once.
To assess disruption of activities such as developmental progression leading to egg hatching in nematodes, C. elegans eggs are exposed to PDE inhibitors. The nematode eggs are exposed to a range of concentrations of family-specific PDE inhibitors, and inhibitors that prevent egg hatching are identified.
The number of hatched larvae in the treated group was compared to a control (untreated) group and the results are evaluated as a function of time up to 3 days after exposure to the PDE inhibitor.
The ability of these various PDE inhibitors to reduce the fecundity of C. elegans was also examined.

C. elegans [2] = experiment: Motility of dauer state C. elegans exposed to PDE inhibitors; conditions: among several PDE inhibitors tested
Procedure: (§1) The dauer state is morphologically similar to the infective states in juvenile phytoparasitic nematodes.
For this study, worms were contacted with drugs and scored for motility at various time points after the drug treatment to determine how quick the motility defect occurred. Nematodes were scored at 0, 1, 2, 4, 8, and 24 hours after addition of the treatment. Concentrations were 4.9 μM cilostazol, 2.5 μM Rolipram, and 6.6 μM papaverine. […] The time is shown in hours after contact was initiated and the effect was determined by assessing the fraction of contacted works that were motile, relative to control worm motility (i.e., worms not contacted with the tested drug). Cilostazol, rolipram and papaverine were tested. […] The time is shown in hours after contact and the effect was determined by assessing the fraction of contacted works that were motile, relative to control worm motility (controls were worms not contacted with tested drug).

C. elegans [3] = experiment: Recovery of motility after contact with PDE inhibitor ceased; conditions: 24 hours exposure, evaluated 24 hours after inhibitor removed
Procedure: Motility is shown relative to the control condition (i.e., motility of worms not contacted with the test drug). The black bars represent the fraction of motile worms after 24 hours of exposure to the PDE inhibitor. The grey bars represent the fraction of motile worms 24 hours after the exposure to the inhibitor ceased. The experiment was repeated three times and the data points represent the mean plus and minus the standard deviation.
as §1
For the study, nematodes were exposed for 24 hours with the PDE inhibitor (at the concentration indicated in FIG. 15) and then plated out and evaluated for normal motility as described elsewhere in the Examples. […] Motility is shown relative to control motility in worms not contacted with the test drug.

| Compound | effect on egg hatching (number of newly hatched juveniles relative to control) (C. elegans [1]) | effectiveness in reducing motility (C. elegans [2]) | reversibility of drug effects on motility (C. elegans [3]) |
| --- | --- | --- | --- |
| O=C1CCc2cc(OCCCCc3nnnn3C3CCCCC3)ccc2N1 [cilostazol] | most effective in preventing egg hatching | most effective in reducing motility | reversed after 24 hours |
| COc1ccc(C2CNC(=O)C2)cc1OC1CCCC1 (centres unmarked) [rolipram] |  | most effective in reducing motility | reversed after 24 hours |
| Cn1cc(-c2ccncc2)c(-c2ccc(OCc3ccc4ccccc4n3)cc2)n1 [MP10] |  | most effective in reducing motility | reversed after 24 hours |
| CCOC(=O)C1=C[C@]2(CC)CCCN3CCc4c(n1c1ccccc41)[C@@H]32 [vinpocetine] | most effective in preventing egg hatching |  |  |
| COc1ccc(Cc2nccc3cc(OC)c(OC)cc23)cc1OC [papaverine] |  | most effective in reducing motility | reversed after 24 hours |
| Cc1[nH]c(=O)c(C#N)cc1-c1ccncc1 [milrinone] |  | most effective in reducing motility | reversed after 24 hours |
| OCCN(CCO)c1nc(N2CCCCC2)c2nc(N(CCO)CCO)nc(N3CCCCC3)c2n1 [dipyridamole] | enhanced egg hatching |  |  |
| CC(C)Cn1c(=O)n(C)c(=O)c2[nH]cnc21 [IBMX, 3-isobutyl-1-methylxanthine] | most effective in preventing egg hatching |  |  |
